# Reference: ChEMBL document CHEMBL1201862, “PubChem BioAssay data set” (2004)
#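 Where inhibition never reached the appropriate level, the endpoint shown equals the highest concentration tested. Otherwise, values were interpolated linearly from a five-concentration, 48-hour dose response in 96-well plates. GI50: concentration for 50% inhibition of growth.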 Activity calls are given as the source filed them. Rule as the data show it: active = GI50 up to about 1.1 µM and inactive = higher.
# Key:
# Assay in all cases: growth of human tumour cells (NCI), 48 h
# CAKI-1 = test system: CAKI-1
# CCRF-CEM = test system: CCRF-CEM
# HL-60 = test system: HL-60
# OVCAR-8 = test system: OVCAR-8
# HOP-92 = test system: HOP-92
# NCI-H522 = test system: NCI-H522
# MOLT-4 = test system: MOLT-4
# OVCAR-5 = test system: OVCAR-5
# SF-268 = test system: SF-268
# SW-620 = test system: SW-620
# KM12 = test system: KM12
# MCF7 = test system: MCF7
# A549 = test system: A549
# HCT-15 = test system: HCT-15
# HOP-62 = test system: HOP-62
# SNB-75 = test system: SNB-75
# SF-539 = test system: SF-539
# SN12C = test system: SN12C
# NCI-H460 = test system: NCI-H460
# SK-MEL-28 = test system: SK-MEL-28
# HCC 2998 = test system: HCC 2998
# SK-MEL-5 = test system: SK-MEL-5
# MDA-MB-435 = test system: MDA-MB-435
# Malme-3M = test system: Malme-3M
# HCT-116 = test system: HCT-116
# NCI/ADR-RES = test system: NCI/ADR-RES
# U-251 = test system: U-251
# OVCAR-4 = test system: OVCAR-4
# HT-29 = test system: HT-29
# Hs-578T = test system: Hs-578T
# A498 = test system: A498
# DU-145 = test system: DU-145
# SK-MEL-2 = test system: SK-MEL-2
# M14 = test system: M14
# UO-31 = test system: UO-31
# LOX IMVI = test system: LOX IMVI
# NCI-H23 = test system: NCI-H23
# BT-549 = test system: BT-549
# OVCAR-3 = test system: OVCAR-3
# ACHN = test system: ACHN
# UACC-257 = test system: UACC-257
# TK-10 = test system: TK-10
# K562 = test system: K562
# RXF 393 = test system: RXF 393
# COLO 205 = test system: COLO 205
# SNB-19 = test system: SNB-19
# SK-OV-3 = test system: SK-OV-3
# EKVX = test system: EKVX
# SF-295 = test system: SF-295
# 786-0 = test system: 786-0
# PC-3 = test system: PC-3
# T47D = test system: T47D
# NCI-H226 = test system: NCI-H226
# RPMI-8226 = test system: RPMI-8226
# IGROV-1 = test system: IGROV-1
# SR = test system: SR
compound,measurement,setting,value
O=C1Nc2cccc(Cl)c2/C1=C\c1cccnc1,GI50,CAKI-1,10.2 µM (inactive)
same,GI50,CCRF-CEM,4.58 µM (inactive)
same,GI50,HL-60,3.72 µM (inactive)
same,GI50,OVCAR-8,4.33 µM (inactive)
same,GI50,HOP-92,27.7 µM (inactive)
same,GI50,NCI-H522,9.66 µM (inactive)
same,GI50,MOLT-4,4.23 µM (inactive)
same,GI50,OVCAR-5,3.77 µM (inactive)
same,GI50,SF-268,7.24 µM (inactive)
same,GI50,SW-620,9.57 µM (inactive)
same,GI50,KM12,5.96 µM (inactive)
same,GI50,MCF7,4.02 µM (inactive)
same,GI50,A549,11.1 µM (inactive)
same,GI50,HCT-15,6.62 µM
same,GI50,HOP-62,6.12 µM (inactive)
same,GI50,SNB-75,15.5 µM (inactive)
same,GI50,SF-539,12.4 µM (inactive)
same,GI50,SN12C,7.82 µM (inactive)
same,GI50,NCI-H460,8.22 µM (inactive)
same,GI50,SK-MEL-28,16.4 µM (inactive)
same,GI50,HCC 2998,2.15 µM (inactive)
same,GI50,SK-MEL-5,11.4 µM (inactive)
same,GI50,MDA-MB-435,5.53 µM (inactive)
same,GI50,Malme-3M,9.93 µM (inactive)
same,GI50,HCT-116,3.16 µM (inactive)
same,GI50,NCI/ADR-RES,4.43 µM (inactive)
same,GI50,U-251,6.47 µM (inactive)
same,GI50,OVCAR-4,12.7 µM (inactive)
same,GI50,HT-29,5.92 µM (inactive)
same,GI50,Hs-578T,14.2 µM (inactive)
same,GI50,A498,21 µM (inactive)
same,GI50,DU-145,6.37 µM (inactive)
same,GI50,SK-MEL-2,11.1 µM (inactive)
same,GI50,M14,6.61 µM (inactive)
same,GI50,UO-31,5.16 µM (inactive)
same,GI50,LOX IMVI,0.944 µM (active)
same,GI50,NCI-H23,3.75 µM (inactive)
same,GI50,BT-549,8.53 µM (inactive)
same,GI50,OVCAR-3,5.64 µM (inactive)
same,GI50,ACHN,10.8 µM (inactive)
same,GI50,UACC-257,5.06 µM (inactive)
same,GI50,TK-10,17.8 µM (inactive)
same,GI50,K562,5.85 µM (inactive)
same,GI50,RXF 393,2.83 µM (inactive)
same,GI50,COLO 205,3.32 µM (inactive)
same,GI50,SNB-19,3.7 µM (inactive)
same,GI50,SK-OV-3,4.12 µM (inactive)
same,GI50,EKVX,17.6 µM (inactive)
same,GI50,SF-295,16.7 µM (inactive)
same,GI50,786-0,7.43 µM (inactive)
same,GI50,PC-3,14.8 µM (inactive)
same,GI50,T47D,3.65 µM (inactive)
CN(C)NC1=NS(=O)(=O)c2cc3c(cc2S1)N(N(C)C)C(=O)c1cc2c(cc1N(N(C)C)C3=O)SC(NN(C)C)=NS2(=O)=O,GI50,CAKI-1,> 10 µM (inactive)
same,GI50,CCRF-CEM,> 10 µM (inactive)
same,GI50,HL-60,> 10 µM (inactive)
same,GI50,OVCAR-8,> 10 µM (inactive)
same,GI50,HOP-92,> 10 µM (inactive)
same,GI50,NCI-H522,> 10 µM (inactive)
same,GI50,MOLT-4,> 10 µM (inactive)
same,GI50,OVCAR-5,> 10 µM (inactive)
same,GI50,NCI-H226,> 10 µM (inactive)
same,GI50,SF-268,> 10 µM (inactive)
same,GI50,SW-620,> 10 µM (inactive)
same,GI50,KM12,> 10 µM (inactive)
same,GI50,MCF7,> 10 µM (inactive)
same,GI50,A549,> 10 µM (inactive)
same,GI50,HCT-15,> 10 µM
same,GI50,HOP-62,> 10 µM (inactive)
same,GI50,SNB-75,> 10 µM (inactive)
same,GI50,SF-539,> 10 µM (inactive)
same,GI50,SN12C,> 10 µM (inactive)
same,GI50,NCI-H460,> 10 µM (inactive)
same,GI50,RPMI-8226,> 10 µM (inactive)
same,GI50,SK-MEL-28,> 10 µM (inactive)
same,GI50,HCC 2998,> 10 µM (inactive)
same,GI50,SK-MEL-5,> 10 µM (inactive)
same,GI50,Malme-3M,> 10 µM (inactive)
same,GI50,HCT-116,> 10 µM (inactive)
same,GI50,NCI/ADR-RES,> 10 µM (inactive)
same,GI50,U-251,> 10 µM (inactive)
same,GI50,OVCAR-4,> 10 µM (inactive)
same,GI50,HT-29,> 10 µM (inactive)
same,GI50,Hs-578T,> 10 µM (inactive)
same,GI50,A498,> 10 µM (inactive)
same,GI50,DU-145,> 10 µM (inactive)
same,GI50,SK-MEL-2,> 10 µM (inactive)
same,GI50,M14,> 10 µM (inactive)
same,GI50,UO-31,> 10 µM (inactive)
same,GI50,LOX IMVI,> 10 µM (inactive)
same,GI50,IGROV-1,> 10 µM (inactive)
same,GI50,NCI-H23,> 10 µM (inactive)
same,GI50,BT-549,> 10 µM (inactive)
same,GI50,SR,> 10 µM (inactive)
same,GI50,OVCAR-3,> 10 µM (inactive)
same,GI50,ACHN,> 10 µM (inactive)
same,GI50,UACC-257,> 10 µM (inactive)
same,GI50,TK-10,> 10 µM (inactive)
same,GI50,K562,> 10 µM (inactive)
same,GI50,RXF 393,> 10 µM (inactive)
same,GI50,COLO 205,> 10 µM (inactive)
same,GI50,SNB-19,> 10 µM (inactive)
same,GI50,SK-OV-3,> 10 µM (inactive)
same,GI50,EKVX,> 10 µM (inactive)
same,GI50,SF-295,> 10 µM (inactive)
same,GI50,786-0,> 10 µM (inactive)
same,GI50,PC-3,> 10 µM (inactive)
same,GI50,T47D,> 10 µM (inactive)
